Columns and labels:
[1] = target: NL20 human bronchial epithelial cells expressing human Z-AAT (Homo sapiens (Human), UniProt P01009, E366K); assay: AAT Function Assay (MSD Assay NL20-SI Cell Line); format: cell-based; conditions: functionally active AAT (AAT-hNE complex, MSD) in supernatant of NL20 cells expressing human Z-AAT; read-out: NL20 Functional EC50
Protocol: A. AAT Function Assay (MSD Assay NL20-SI Cell Line)
Alpha-1 antitrypsin (AAT) is a SERpIN (serine protease inhibitor) that inactivates enzymes by binding to them covalently. This assay measured the amount of functionally active AAT in a sample in the presence of the disclosed Compounds 1-227 by determining the ability of AAT to form an irreversible complex with human neutrophil Elastase (hNE). In practice, the sample (cell supernatant, blood sample, or other) was incubated with excess hNE to allow AAT-Elastase complex to be formed with all functional AAT in the sample. This complex was then captured to a microplate coated with an anti-AAT antibody. The complex captured to the plate was detected with a labeled anti-Elastase antibody and quantitated using a set of AAT standards spanning the concentration range present in the sample. Meso Scale Discovery (MSD) plate reader, Sulfo-tag labeling, and microplates were used to provide high sensitivity and wide dynamic range.
Instrument(S): • Meso Sector S600 • Bravo • Washer dispenser • Multidrop Combi
Day 1 Cell Culture • 1. Harvest NL20 human bronchial epithelial cells expressing human Z-AAT in OptiMEM™ containing Pen/Strep (P/S) • 2. Seed at 16,000 cells/well in 30 μL (384 well plate) • 3. Centrifuge plates briefly up to speed (1200 rpm) and place into 37° C. incubator overnight
Day 2: Compound Addition and Coating Plates with Capture Antibody
Compound Addition: • 1. Dispense 40 μL of OptiMEM™ (P/S) with doxycycline (1:1000 stock=0.1 μM final) to each well of the compound plate using a multidrop Combi in hood • 2. Remove cell plate from incubator, flip/blot and take immediately to Bravo to transfer compounds • 3. Return plates to incubator overnight
Coat MSD Plates • 1. Dilute capture antibody (Polyclonal Goat anti-AAT) to 5 μg/mL (1:200) in PBS (no BSA). • 2. Dispense 25 μL of diluted capture antibody into all wells of MSD 384-well High Bind plate using the Multidrop equipped with a standard cassette. • 3. Incubate overnight at 4° C.
Prepare Blocker A (BSA) Solutions • 1. Prepare solution of 5% MSD Blocker A (BSA) following the manufacturer's instructions. • 2. Further dilute the 5% MSD Blocker A in PBS to 1% (Blocker A) as needed.
Block Plates • 1. Wash plate 1× with 50 μL Wash buffer (PBS+0.5% Tween 20), and adds 35 μL 5% Block A buffer to block non-specific binding on washer dispenser • 2. Rotate plates on shaker for 1 hour at 600 rpm
Prepare M-AA T Standards • 1. Dilute M-AAT stock to 1.6 μg/mL in 1% BSA Blocker A (Stock in −70° C.); then prepare 12×1:2 serial dilutions in 1% Blocker A • 2. The top starting final concentration on MSD plate is 320 ng/mL. These dilutions correspond to a final concentration of 320, 160, 80, 40, 20, 10, 5, 2.5, 1.25, 0.625, 0.312, 0.156 ng/mL.
Dilution Plate • 1. Add 80 μL of 1% Assay buffer to all wells except columns 1/24 (standards) with Multidrop Combi • 2. Add diluted standards to columns 1 and 24 • 3. Centrifuge dilution plates 1200 rpm briefly
Cell Plate • 1. Aspirate columns which will have the standards from the cell plates in the hood using 16-pin aspirator
Prepare Human Neutrophil Elastase (hNE) • 1. Prepare 1 μg/mL Human Neutrophil Elastase by diluting in 1% Blocker A. • a. Small 100 μg vial—add 1 mL PBS (100 μg/mL) • i. This can then be diluted 1:100 in 1% Assay Buffer for a final 1 μg/mL concentration
MSD—add hNE (20 μL/well) • 1. After the MSD plate has blocked for at least 1 hour, wash plate 1× with 50 μL Wash buffer (PBS+0.5% Tween 20) and then add 20 μL hNE to each well
Bravo—Cell Plate—Dilution Plate—MSD Plate
Using the Bravo aspirate 10 μL from the cell plate, transfer to the dilution plate (9-fold dilution) • 1. Mix 25 μL 3×, then aspirate 5 μL, transfer to MSD plate (5-fold dilution) • 2. Mix 10 μL 3×. Total dilution is 45 fold. • 3. Shake plates at 600 rpm for 1.5 hours
Add Functional Detection hNE Antibody • 1. Wash plate 1× with wash buffer • 2. […]

[2] = target: purified Z-AAT protein from human plasma (Homo sapiens (Human), UniProt P01009, E366K); assay: Biochemical Assay (Z-AAT Elastase Activity Assay); conditions: purified Z-AAT pre-incubated with compound 1 hour, then human neutrophil elastase and fluorescent substrate
From the text: B. Biochemical Assay (Z-AAT Elastase Activity Assay)
This assay measured the modulation of Compounds 1-227 on Z-AAT SERpIN activity using purified Z-AAT protein and purified human neutrophil elastase (hNE). Normally, when active monomeric Z-AAT encounters a protease such as trypsin or elastase, it forms a 1:1 covalent “suicide” complex in which both the AAT and protease are irreversibly inactivated. However, compounds binding to Z-AAT can lead to a decrease in SERpIN activity. In such cases, when a protease encounters compound-bound Z-AAT, the protease cleaves and inactivates Z-AAT without itself being inactivated.
Reagents • PBS buffer (media prep)+0.01% BRIJ35 detergent (Calbiochem catalog #203728) Opti-MEM media (Fisher 11058-021) • Human neutrophil elastase (hNE, Athens Research #16-14-051200) • 3.4 μM stock (0.1 mg/mL) prepared in 50 mM Na Acetate, pH 5.5, 150 mM NaCl, stored at −80° C. • Elastase substrate V (ES V, fluorescent peptide substrate MeOSuc-Ala-Ala-Pro-Val-AMC, Calbiochem catalog #324740) • 20 mM stock in DMSO, stored at −20° C. • Purified Z-AAT protein from human plasma; • 12.9 μM (0.67 mg/mL) Z-AAT Vertex Cambridge Sample 4942, from patient • #061-SSN, stored at −80 C
Plates • Corning 4511 (384 well black low volume)
Instruments • PerkinElmer® EnVision™
Pre-Incubation of Z-AAT with Compounds • 1. 7.5 μL of Z-AAT (20 nM) was incubated with compounds 1-227 in a GCA plate for 1 hour at room temperature
Addition of hNE • 1. 7.5 ul of HNE solution (3 nM in PBS+0.01% BRIJ35) added into GCA plate • 2. Incubate plate for 30 minutes to allow Z-AAT/HNE suicide complex formation.
Addition of Substrate and Read Plate on PE Envision • 1. 7.5 μL of substrate (300 μM solution of elastase substrate (ES V) in PBS+0.01% BRIJ35) dispensed per well into GCA plate • 2. Immediately read on Envision.

purified Z-AAT protein from human plasma, sequence (P01009 25-418 E366K limits assumed): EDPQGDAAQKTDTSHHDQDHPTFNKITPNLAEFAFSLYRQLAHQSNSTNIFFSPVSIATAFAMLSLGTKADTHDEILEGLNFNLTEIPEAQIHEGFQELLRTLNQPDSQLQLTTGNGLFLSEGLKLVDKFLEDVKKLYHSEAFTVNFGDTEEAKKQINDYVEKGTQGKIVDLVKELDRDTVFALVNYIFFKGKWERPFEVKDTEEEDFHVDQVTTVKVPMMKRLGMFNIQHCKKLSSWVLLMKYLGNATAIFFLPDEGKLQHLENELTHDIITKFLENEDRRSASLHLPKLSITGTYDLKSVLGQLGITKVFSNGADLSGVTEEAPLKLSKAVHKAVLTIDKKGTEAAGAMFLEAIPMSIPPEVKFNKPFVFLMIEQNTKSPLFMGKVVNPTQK
NL20 human bronchial epithelial cells expressing human Z-AAT, sequence (P01009 25-418 E366K limits assumed): as above

Row | EC50 [1] [µM] | IC50 [2] [µM] | SMILES
1 | > 2 | > 30 | O=C(O)[C@H]1CC[C@@H](c2c(C3CCOCC3)n(-c3ccc(F)c(Cl)c3)c3ccc(O)cc32)CC1 [Compound 24]
2 | > 2 | > 30 | N#Cc1c(C2CNC2)n(-c2ccc(F)cc2)c2ccc(O)cc12 [Compound 196]
3 | > 2 | > 30 | Cc1cc(-n2c(C3CCOCC3)c(CC34CC(C(=O)O)(C3)C4)c3cc(O)ccc32)ccc1F [Compound 4]
4 | > 2 | > 30 | CC(C)(C)OC(=O)N1CC(c2c(C#N)c3cc(O)ccc3n2-c2ccc(F)cc2)C1 [Compound 195]
5 | > 2 | > 30 | O=C(O)[C@H]1CC[C@H](c2c(C3CCOCC3)n(-c3ccc(F)c(F)c3)c3ccc(O)cc32)CC1 [Compound 137]
6 | 0.5 to 2 | > 5 | CCC(OC)c1c(C#N)c2cc(O)ccc2n1-c1ccc(F)cc1 (racemic) [Compound 190, 1-(4-fluorophenyl)-5-hydroxy-2-(1-methoxypropyl)indole-3-carbonitrile]
7 | > 2 | > 30 | Cc1cc(-n2c(C3CCOCC3)c(CC3(C(=O)O)CC3)c3cc(O)ccc32)ccc1F [Compound 103]
8 | > 2 | > 30 | COC[C@]1(C(=O)O)C[C@@H](c2c(C3CCOCC3)n(-c3ccc(F)c(C)c3)c3ccc(O)cc32)C1 [Compound 107, cis-3-(1-(4-fluoro-3-methylphenyl)-5-hydroxy-2-(tetrahydro-2H-pyran-4-yl)-1H-indol-3-yl)-1-(methoxymethyl)cyclobutane-1-carboxylic acid]
9 | > 2 | > 30 | CC(C)(C)OC(=O)N1CCC(c2c(C#N)c3cc(O)ccc3n2-c2ccc(F)cc2)CC1 [Compound 199]
10 | > 2 | > 30 | COC[C@]1(C(=O)O)C[C@H](c2c(C3CCOCC3)n(-c3ccc(F)c(C)c3)c3ccc(O)cc32)C1 [Compound 106, trans-3-(1-(4-fluoro-3-methylphenyl)-5-hydroxy-2-(tetrahydro-2H-pyran-4-yl)-1H-indol-3-yl)-1-(methoxymethyl)cyclobutane-1-carboxylic acid]
11 | 0.5 to 2 | > 5 | Cc1cc(-n2c(C3CCOCC3)c([C@H]3C[C@](C)(C(=O)O)C3)c3cc(O)ccc32)ccc1F [Compound 99]
12 | < 0.5 | > 5 | Cc1cc(-n2c(C3CCOCC3)c([C@H]3CC4(C[C@H](C(=O)O)C4)C3)c3cc(O)ccc32)ccc1F (some centres unmarked) [Compound 12]
13 | > 2 | > 30 | C/C=C/c1c(C#N)c2cc(O)ccc2n1-c1ccc(F)cc1 [Compound 191, 1-(4-fluorophenyl)-5-hydroxy-2-[(E)-prop-1-enyl]indole-3-carbonitrile]
14 | > 2 | – | Cc1cc(-n2c(C(C)C)c([C@H]3C[C@H](c4n[nH]c(=O)o4)C3)c3cc(O)ccc32)ccc1F [Compound 221, Trans-5-[3-[1-(4-fluoro-3-methyl-phenyl)-5-hydroxy-2-isopropyl-indol-3-yl]cyclobutyl]-3H-1,3,4-oxadiazol-2-one]
15 | 0.5 to 2 | > 5 | Cc1cc(-n2c(C(F)(F)F)c(C3CC4(CC(C(=O)O)C4)C3)c3cc(O)ccc32)ccc1F (centres unmarked) [Compound 140, 6-(1-(4-fluoro-3-methylphenyl)-5-hydroxy-2-(trifluoromethyl)-1H-indol-3-yl)spiro[3.3]heptane-2-carboxylic acid]
16 | 0.5 to 2 | > 30 | Cc1cc(-n2c(C3CCOCC3)c([C@H]3C[C@H](c4noc(=O)[nH]4)C3)c3cc(O)ccc32)ccc1F [Compound 223, Trans-3-[3-[1-(4-fluoro-3-methyl-phenyl)-5-hydroxy-2-tetrahydropyran-4-yl-indol-3-yl]cyclobutyl]-4H-1,2,4-oxadiazol-5-one]
17 | > 2 | > 30 | O=C(O)[C@H]1C[C@@H](c2c(C3CCOCC3)n(-c3cc(F)cc(F)c3)c3ccc(O)cc32)C1 [Compound 113]
18 | 0.5 to 2 | – | Cc1cc(-n2c(C(C)C)c(C3CC3(C)C(=O)O)c3cc(O)ccc32)ccc1F (centres unmarked) [Compound 130]
19 | 0.5 to 2 | – | Cc1cc(-n2c(C(C)C)c([C@H]3C[C@@H]3C(=O)O)c3cc(O)c(F)cc32)ccc1F [Compound 129]
20 | > 2 | – | Cc1c(C(C)C#N)c2cc(O)ccc2n1-c1ccc(F)cc1 (centres unmarked) [Compound 183, 2-(1-(4-fluorophenyl)-5-hydroxy-2-methyl-1H-indol-3-yl)propanenitrile]
21 | 0.5 to 2 | – | Cc1cc(-n2c(C(C)C)c(-c3ccc(C(=O)O)cc3C)c3cc(O)ccc32)ccc1F [Compound 170]
22 | < 0.5 | – | Cc1cc(-n2c(C(C)C)c(-c3ccc(C(=O)O)cc3)c3cc(O)ccc32)ccc1F [Compound 167]
23 | – | > 30 | Cc1cc(-n2c(C3CCOCC3)c([C@H]3CC[C@H](C(=O)O)CC3)c3cc(O)ccc32)ccc1F [Compound 1, trans-4-(1-(4-fluoro-3-methylphenyl)-5-hydroxy-2-(tetrahydro-2H-pyran-4-yl)-1H-indol-3-yl)cyclohexane-1-carboxylic acid]
24 | > 2 | – | Cc1cc(-n2c(C(C)C)c([C@H]3C[C@@H](c4n[nH]c(=O)o4)C3)c3cc(O)ccc32)ccc1F [Compound 222, cis-5-[3-[1-(4-fluoro-3-methyl-phenyl)-5-hydroxy-2-isopropyl-indol-3-yl]cyclobutyl]-3H-1,3,4-oxadiazol-2-one]
25 | > 2 | – | Cc1c(C#N)c2cc(O)ccc2n1-c1ccc(F)cc1 [Compound 182, 1-(4-fluorophenyl)-5-hydroxy-2-methyl-1H-indole-3-carbonitrile]
